Experimental findings from article PMC7993727, “Discovery of a novel AR/HDAC6 dual inhibitor for prostate cancer treatment” (Aging (Albany NY), 2021) are described below.

Test [1] deals with AR-LBD. Put plainly: AR competitive binding, fluorescence polarization. Here is the method:
To evaluate the AR inhibition activities of Zeta55, an AR luciferase activity assay was performed (Table 1 and Supplementary Figure 1). […]. To evaluate the HDAC inhibition activities of Zeta55, fluorescent-based HDAC assays were performed (Table 1 and Supplementary Figure 3). […]. Both compounds seem ineffective against HDAC4.
Supplementary Figure 1. […]
polarization assay. Test compounds were incubated with recombinant AR-LBD (GST) and the fluorescence polarization (mP) was measured
at an excitation wavelength of 485 nm and emission wavelength of 535 nm. […]
For orientation: In fluorescence polarisation assays a small probe gives low polarisation when free and higher when bound to something large.

Test [2] concerns the target T1, HDAC6 (Homo sapiens, UniProt Q9UBN7).
T1 sequence (Q9UBN7 1-1215): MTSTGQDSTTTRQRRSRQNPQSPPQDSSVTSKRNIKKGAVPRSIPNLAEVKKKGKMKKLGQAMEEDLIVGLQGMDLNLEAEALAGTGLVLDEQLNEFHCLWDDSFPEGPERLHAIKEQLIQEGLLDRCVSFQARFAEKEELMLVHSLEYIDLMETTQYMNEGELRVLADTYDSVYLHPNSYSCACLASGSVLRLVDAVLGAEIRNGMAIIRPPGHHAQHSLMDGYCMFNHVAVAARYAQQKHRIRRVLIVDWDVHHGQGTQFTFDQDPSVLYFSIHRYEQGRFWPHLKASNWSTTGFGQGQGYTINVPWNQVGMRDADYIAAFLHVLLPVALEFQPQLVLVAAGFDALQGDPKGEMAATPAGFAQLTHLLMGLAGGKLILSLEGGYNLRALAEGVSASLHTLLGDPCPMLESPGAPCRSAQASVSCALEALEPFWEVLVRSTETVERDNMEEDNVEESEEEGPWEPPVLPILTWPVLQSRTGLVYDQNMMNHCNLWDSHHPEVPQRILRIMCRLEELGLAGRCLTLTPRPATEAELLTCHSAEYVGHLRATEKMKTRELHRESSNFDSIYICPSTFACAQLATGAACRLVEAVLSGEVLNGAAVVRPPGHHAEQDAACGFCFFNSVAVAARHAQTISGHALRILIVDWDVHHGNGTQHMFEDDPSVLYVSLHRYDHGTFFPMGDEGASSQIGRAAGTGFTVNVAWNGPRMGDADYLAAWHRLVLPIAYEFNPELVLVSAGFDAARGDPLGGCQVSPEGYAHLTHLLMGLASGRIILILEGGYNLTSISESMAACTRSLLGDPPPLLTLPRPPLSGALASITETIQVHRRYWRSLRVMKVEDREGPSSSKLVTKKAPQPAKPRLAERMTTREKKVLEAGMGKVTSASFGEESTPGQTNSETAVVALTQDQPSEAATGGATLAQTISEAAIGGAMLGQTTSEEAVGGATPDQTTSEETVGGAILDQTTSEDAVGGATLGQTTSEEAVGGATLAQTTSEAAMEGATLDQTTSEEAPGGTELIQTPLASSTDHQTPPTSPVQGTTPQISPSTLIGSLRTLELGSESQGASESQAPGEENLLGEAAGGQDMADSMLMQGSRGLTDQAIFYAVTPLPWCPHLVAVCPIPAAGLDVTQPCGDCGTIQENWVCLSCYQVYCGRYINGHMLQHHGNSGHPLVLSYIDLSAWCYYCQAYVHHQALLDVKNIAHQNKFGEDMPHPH
In words: fluorescent-based HDAC assay. The format is biochemical. Details: purchased BPS Bioscience. Here is the method: Commercial fluorescent assay kits were used to measure the activities of HDAC (BPS Bioscience). Briefly, the tested compounds were diluted in DMSO into a 96-well plate, and then assay buffer, HDAC, and substrate were added. The plate was incubated at 37° C for 30 minutes for enzymatic reactions, and the developer was added. After 10 minutes of incubation, the generated fluorescence was measured at an excitation of 380 nm and an emission of 460 nm.

Test [3] has as its target T2, AR (Homo sapiens, UniProt P10275).
T2 construct: The VCaP cells were transfected with MMTV-LUC for 24 hours; endogenous in cells; host or cells: VCaP
T2 sequence (P10275 1-920): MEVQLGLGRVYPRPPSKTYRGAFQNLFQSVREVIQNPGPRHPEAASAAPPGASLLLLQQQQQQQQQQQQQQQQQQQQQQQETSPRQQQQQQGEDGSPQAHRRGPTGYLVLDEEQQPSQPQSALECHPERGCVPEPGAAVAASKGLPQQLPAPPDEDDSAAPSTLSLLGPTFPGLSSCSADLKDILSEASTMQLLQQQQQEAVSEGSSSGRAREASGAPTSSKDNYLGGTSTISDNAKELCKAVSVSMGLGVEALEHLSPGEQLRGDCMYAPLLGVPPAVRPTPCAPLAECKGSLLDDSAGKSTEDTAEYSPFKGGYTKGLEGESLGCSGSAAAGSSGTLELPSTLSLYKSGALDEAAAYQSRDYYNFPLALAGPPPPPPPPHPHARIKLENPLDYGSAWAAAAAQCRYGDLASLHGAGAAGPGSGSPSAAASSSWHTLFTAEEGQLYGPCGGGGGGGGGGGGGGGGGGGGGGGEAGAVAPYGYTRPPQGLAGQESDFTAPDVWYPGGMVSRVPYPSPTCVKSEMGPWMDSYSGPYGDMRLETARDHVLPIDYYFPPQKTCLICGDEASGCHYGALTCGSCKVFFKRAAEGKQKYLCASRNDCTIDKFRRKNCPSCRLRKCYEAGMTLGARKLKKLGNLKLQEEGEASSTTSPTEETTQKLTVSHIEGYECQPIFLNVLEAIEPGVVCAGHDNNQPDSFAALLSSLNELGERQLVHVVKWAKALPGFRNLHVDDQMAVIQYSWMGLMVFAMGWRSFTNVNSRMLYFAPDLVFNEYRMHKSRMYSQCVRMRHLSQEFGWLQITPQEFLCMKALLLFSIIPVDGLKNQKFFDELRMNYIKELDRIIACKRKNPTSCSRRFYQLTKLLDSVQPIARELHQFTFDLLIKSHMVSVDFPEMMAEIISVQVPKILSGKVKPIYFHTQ
Put plainly: cell-based. To be noted: VCaP cells. In kind it is cell-based. Here is the method:
To evaluate the AR inhibition activities of Zeta55, an AR luciferase activity assay was performed (Table 1 and Supplementary Figure 1). […] To evaluate the HDAC inhibition activities of Zeta55, fluorescent-based HDAC assays were performed (Table 1 and Supplementary Figure 3).

The target in test [4] is T2, AR. In kind it is cell-based. The settings on record: VCaP cells, 10% FBS, 10 μM, 24 hours.
Protocol: Cells were fixed with 4% paraformaldehyde for 15 minutes at room temperature, permeabilized with immunostaining permeate for 10 minutes and blocked with 5% BSA containing 1% Tween-20 for 1 hour. After overnight Immunostain with AR Rabbit monoclonal antibody (1:400;CST,5153S) at 4° C, a Cy3 conjugated Goat Anti-Rabbit IgG (1:300; Servicebio, GB21303) reacted for 1 hour. DAPI (4’,6-diamidine-2’-phenylindole, Servicebio, G1012) stained the nuclear to bule for 10 minutes in the dark. Washing three times with PBS between each step. Immunofluorescence images were acquired by fluorescence microscopy using a NIKON ECLIPSE CI microscope (Nikon Corporation; magnification).

Consider `N#Cc1ccc(N2C(=O)C3(CCC3)N(c3ccc(C(=O)NO)c(F)c3)C2=S)cc1C(F)(F)F` [Zeta55], for which, in test [1], the “AR binding affinity relative to MDV3100” value is 60%. The IC50 (commonly the point on the concentration scale where inhibition reaches its midpoint) in test [2] is 980 nM; in test [3] (AR luciferase activity assay, MMTV-LUC, with 10 nM DHT), 630 nM. Further, in test [2] (over HDAC1, 2, 3, 4), the “selectivity for HDAC6 over other HDACs tested” value was > 20 folds. Moreover, the “AR antagonist activity, AR-mediated expression of reporter gene” value in test [3] (in the presence of DHT) is on record as “potently inhibited”. In test [3] (without DHT, 10 μM), the “AR agonist activity, expression of reporter gene” value is reported as “did not induce the expression of reporter gene”. The “subcellular localization of AR” value in test [4] is “distributed in both cytoplasm and nucleus”.
